Reference: US4865840A, “Topical compositions containing selenoamino acids for the prevention of ultraviolet radiation-induced skin damage” (priority 1987, dated 1989)

Assays:
[1] = toxicity in selenium treated mice (hepatic enzymes, alkaline phosphatase); format: in vivo
[2] = absorption into treated human skin; format: in vivo; settings: topical
Description: Topical application of selenoamino acid compositions in accordance with the invention provides a different type of protection than that afforded by conventional sunscreens, such as those containing p-amino benzoic acid, because the selenium is actually absorbed into treated human skin within a period of less than fifteen minutes. Thus, unlike a superficial sunscreen, the protective effect of the selenomethionine is not washed off by, e.g., swimming or sweating. Thus, frequent reapplication is not required to maintain protection, as is the case with known sunscreen products.

[3] = system: UV irradiated Skh:2 mice (skin cancers); experiment: clinically detectable skin tumors in UV irradiated Skh:2 mice; format: in vivo, female Skh:2 hairless, pigmented mice
Description: (§1) To determine the effectiveness of selenium supplementation in the form of topical application and oral administration of L-selenomethionine in providing protection for ultraviolet radiation-induced skin damage, 120 BALB-C female mice and 40 female Skh:2 hairless, pigmented, dark-eyed mice were obtained and separated into treatment groups as follows:
During the treatment, the BALB-C mice were shaved on the back one per week. 100 λ of a composition according to the invention in the form of an oil-in-water emulsion location containing 0.02% L-selenomethionine was applied three times a week to the backs and ears of the mice for a period of one week prior to beginning irradiation with ultraviolet light. […]
(§2) To evaluate the effectiveness of the selenium supplementation in protecting against skin cancers and the relative merits of the claimed composition, the total number of clinically detectable skin cancers in each group was counted.

[4] = format: in vivo; settings: 100 λ of 0.02% L-selenomethionine oil-in-water lotion, mice
Description: (§3) During the treatment, the BALB-C mice were shaved on the back one per week. 100 λ of a composition according to the invention in the form of an oil-in-water emulsion location containing 0.02% L-selenomethionine was applied three times a week to the backs and ears of the mice for a period of one week prior to beginning irradiation with ultraviolet light. The lotion carrier was formulated from an oil phase containing 21/2% polypropylene glycol-3-myristyl ether, 2% squalane, 0.5% safflower oil, 1% Myrj 52S emulsifier, 0.75% cetyl alcohol, 0.3% SPAN-60, 6.5% Amercol L101, 0.5% Lanocerin, 1% glyceral monostearate, 0.1% preservative, 1% Silicone 200, 1% stearic acid, and 0.5% isostearic acid; and an aqueous phase containing 68.5% distilled water, 0.75% triethanolamine, 5% propylene glycol, 0.3% preservative, 0.1% allantoin, 0.4% Germal II dissolved in 2% water, and 5% of Carbopol 941 (2.5% solution). Each 100 λ application of the composition penetrated the skin within a period of ten minutes. The composition continued to be applied thirty minutes before each thrice weekly irradiation.

[5] = system: UV irradiated BALB-C mice (skin cancers); experiment: clinically detectable skin tumors and mortality in UV irradiated and unirradiated BALB-C mice; format: in vivo, BALB-C female mice
Description: as §1, §3
(§4) Maintenance exposure times for the BALB-C mice was 50 minutes, while for the Skh:2 mice it was 15 minutes. Irradiation with four Westinghouse FS40 sunlamps was begun at 5 minute exposures, however, and increased by 5 minutes per session for the BALB-C mice and by 2.5 minutes per session for the Skh:2 mice until the respective maintenance exposure level for each type of mouse was reached. The maintenance dose of UV radiation for the BALB-C mice was 0.58 Joules/sq. cm./exposure and for the Skh:2 mice, 0.24 Joules/s. cm./exposure. This irradiation was continued for 28 weeks for the BALB-C mice (about 41 joules/sq. cm. total) and 24 weeks for the Skh:2 mice (about 15 joules/sq. cm. total).
as §2
Tumors greater than 5 mm in size were also considered, but the observed results were inconclusive due to the complicating effect of mortality in irradiated/non-selenium supplemented mice.

[6] = system: pigmentation of Skh:2 mice; experiment: Pigmentation of Skh:2 mice after exposure to UV-irradiation; format: in vivo; settings: for Pigmentation score: +4 = dark pigmentation, 0 = no pigmentation
Description: as §1, §3, §4
(§5) This is illustrated in Table 6, where the pigmentation of selenium supplemented mice is reduced.

superoxide dismutase = experiment: hepatic activity of superoxide dismutase (SOD); format: in vivo, BALBc mice; settings: 39 weeks, pH 10.2
Procedure: (§6) Since selenium is a co-factor for a free-radical quenching enzyme, glutathione peroxidase, the level of two hepatic free-radical quenching enzymes, selenium dependent glutathione peroxidase and superoxide dismutase were also tested.
^1 SOD was measured by the inihibition of the spontaneous oxidation o
epinephrine at pH 10.2; 1 EU = 50% inhibition.

[7] = tissue Se in BALBC mice after 3 months; settings: mouse, in vivo; for concentration at 2190 h: tissue Se
Description: as §1, §3, §4
(§7) After 12 weeks, 6 irradiated and 4 non-irradiated BALB-C mice were sacrificed, and at 39 weeks the remaining BALB-C mice were sacrificed. The liver and skin selenium levels were determined.

[8] = in vivo
[9] = set-up: species or system BALBC mice; settings: mouse, in vivo, po
Description: as §1
as §3, with “Each 100 λ application of the composition penetrated the skin within a period of ten minutes. The composition continued to be applied thirty minutes before each thrice weekly irradiation.” left out
(§8) Throughout the studies, the weights of the mice and the total feed and water intake were monitored.

[10] = system: selenium dependent glutathione peroxidase; experiment: hepatic activity of Se-dependent glutathione peroxidase (SeGSHpx); format: in vivo, BALBC mice; settings: for liver SeGSHpx: 3 months, mean ± SEM; for SeGSHpx: hepatic, 39 weeks
Description: as §1, §3, §4, §6

[11] = selenium levels in skin, plasma/serum and liver after topical application (general statement)
[12] = system: ultraviolet radiation-induced skin damage; experiment: protection from UV radiation-induced skin damage (inflammation, i.e. sunburn; skin cancers); format: in vivo
Description: as §5

[13] = set-up: species or system KH2 (Skh:2) mice; settings: mouse, in vivo
Description: as §1
as §3, with “Each 100 λ application of the composition penetrated the skin within a period of ten minutes. The composition continued to be applied thirty minutes before each thrice weekly irradiation.” left out
as §8

in vivo = experiment: in vivo; set-up: species or system BALBc mice; settings: mouse; for Liver Se / Ventral skin Se / dorsal skin Se: 6552 h
Description: as §1, §3, §4, §7

[14] = topical; cited from earlier work
[15] = system: UV-induced skin cancer in hairless mice; settings: oral, cited from earlier work
[16] = unirradiated BALB-C, groups 4-6

## C[Se]CC[C@H](N)C(=O)O [L-selenomethionine]
[1]
  toxicity: no evidence of toxicity
[2]
  time in which selenium is absorbed into treated human skin: less than fifteen
[3]; irradiated Skh:2, topical and oral, FIGS. 4, 5
  protection against skin cancers (tumors over 3 mm; animals with tumors): comparable protection against skin cancers
[3]; irradiated Skh:2, control mortality a complicating factor
  observations based upon 5 mm tumors: superior in the selenium-supplemented mice
[4]
  time in which the composition penetrated the skin: ten
[5]; irradiated BALB-C, groups 1-3, FIG. 3
  UV-induced mortality: clear reduction in UV-induced mortality
[5]; irradiated BALB-C, topical and oral, FIGS. 1, 2
  protection against skin cancers (tumors over 3 mm; animals with tumors): comparable protection against skin cancers
[5]; irradiated BALB-C, complicated by mortality of non-supplemented mice
  tumors greater than 5 mm: inconclusive
[5]; [16]
  deaths during the test period: none died
  tumors observed during the experimental period: no tumors observed
[6]; oral, week 7, no selenium 3.3
  Pigmentation score: 1.7
[6]; oral, week 12, no selenium 3.5
  Pigmentation score: 2.5
[6]; oral, week 16, no selenium 3.6
  Pigmentation score: 2.6
[6]; selenium supplemented mice, Table 6
  pigmentation: reduced
[6]; topical, week 7, no selenium 3.3
  Pigmentation score: 2.3
[6]; topical, week 12, no selenium 3.5
  Pigmentation score: 2.7
[6]; topical, week 16, no selenium 3.6
  Pigmentation score: 2.6
Superoxide dismutase; UV +, d.water, n = 20, 1 EU = 50% inhibition of epinephrine oxidation
  SOD: 243 ± 67 EU/g
Superoxide dismutase; UV +, topical, n = 13, 1 EU = 50% inhibition of epinephrine oxidation
  SOD: 181 ± 51 EU/g
Superoxide dismutase; UV -, d.water, n = 4, 1 EU = 50% inhibition of epinephrine oxidation
  SOD: 109 ± 43 EU/g
Superoxide dismutase; UV -, topical, n = 4, 1 EU = 50% inhibition of epinephrine oxidation
  SOD: 88 ± 34 EU/g
[7]
  selenium levels in the localized part of the skin treated: preferential increase in selenium levels in the localized part of the skin actually treated
  selenium levels in the treated skin: substantially enhanced selenium levels in the treated skin
[7]; po, 2190 h
  tissue Se, dorsal skin: .578 ± .061 g/g
  tissue Se, ventral skin: .666 ± .046 g/g
[7]; po, dorsal skin
  concentration at 2190 h: 913 ± 74 ng/g
[7]; po, liver
  concentration at 2190 h: 1600 ± 186 ng/g
[7]; po, ventral skin
  concentration at 2190 h: 728 ± 28 ng/g
[7]; topical or ocular, dorsal skin
  concentration at 2190 h: 4520 ± 568 ng/g
[7]; topical or ocular, liver
  concentration at 2190 h: 2240 ± 353 ng/g
[7]; topical or ocular, ventral skin
  concentration at 2190 h: 1860 ± 193 ng/g
[8]
  selenium concentration in the skin in the area of application: higher than that attained using a comparable oral dosage of selenium
  selenium levels in the plasma and liver: enhanced levels of selenium in the plasma and liver
  selenium levels in the skin: significantly enhanced levels of selenium in the skin
  selenium levels in untreated skin, serum and liver: comparable to those in animal receiving oral doses of selenium
[9]
  effect on feeding habits: little effect on the feeding habits of the mice
[10]; UV +, drinking water, n = 6
  liver SeGSHpx: 125.69 ± 14.59 nmoles NADPH/min/mg
[10]; UV +, topical, n = 6
  liver SeGSHpx: 124.15 ± 10.51 nmoles NADPH/min/mg
[10]; UV -, drinking water, n = 4
  liver SeGSHpx: 141.49 ± 18.71 nmoles NADPH/min/mg
[10]; UV -, topical, n = 4
  liver SeGSHpx: 160.18 ± 17.36 nmoles NADPH/min/mg
  SeGSHpx: 83.30 ± 20.83 nmoles NADPH/mg-min
[10]; UV +, d.water, n = 20
  SeGSHpx: 114.91 ± 12.20 nmoles NADPH/mg-min
[10]; UV +, topical, n = 13
  SeGSHpx: 85.97 ± 9.92 nmoles NADPH/mg-min
[10]; UV -, d.water, n = 4
  SeGSHpx: 57.98 ± 10.82 nmoles NADPH/mg-min
[11]
  toxicity: without toxicity
[12]; topical
  protection against less severe UV radiation-induced damage (inflammation i.e. sunburn and pigmentation): observed to protect the skin against less severe types of ultraviolet radiation-induced damage such as inflammation i.e. sunburn and pigmentation
[12]; topical application
  incidence of skin cancers following exposure to ultraviolet radiation: significantly reduce the incidence of skin cancers
[13]
  Feed Intake: 496.5 ± 31.1 g/mouse
  Water Intake: 594.6 ± 43.0 g/mouse
In vivo; po
  Liver Se: 1.674 ± .137 ppm
  Ventral skin Se: .521 ± .018 ppm
  dorsal skin Se: .432 ± .023 ppm
In vivo; po, Liver Se
  concentration at 6552 h: 1560 ± 84 ng/g
In vivo; po, Ventral skin Se
  concentration at 6552 h: 508 ± 26 ng/g
In vivo; po, dorsal skin Se
  concentration at 6552 h: 562 ± 40 ng/g
In vivo; topical or ocular
  Liver Se: 1.481 ± .156 ppm
  Ventral skin Se: .777 ± .069 ppm
  dorsal skin Se: 2.255 ± .582 ppm
In vivo; topical or ocular, Liver Se
  concentration at 6552 h: 1420 ± 150 ng/g
In vivo; topical or ocular, Ventral skin Se
  concentration at 6552 h: 843 ± 76 ng/g
In vivo; topical or ocular, dorsal skin Se
  concentration at 6552 h: 2010 ± 190 ng/g

## S=[Se]=S [Selenium sulfide, selenium sulfide]
[14]
  skin penetration / selenium levels in the serum or liver: does not penetrate the skin to give increased levels of selenium in the serum or liver

## O=[Se](O)O [sodium selenite]
[15]; decreased weight gain relative to controls
  animal growth rate: moderate inhibition of animal growth rate
[15]
  protection against UV-induced skin cancer: dose-dependent selenium protection against UV-induced skin cancer
  resistance to acute and sub-acute effects of UV radiation (inflammation and pigmentation): more resistant to the acute and sub-acute effects of UV radiation
